Tests used:
Assay type in all cases: in vivo
[1] = system: Cercospora arachidicola; assay: foliar fungal disease test on plants, Cercospora arachidicola (peanut); details: 100 ppm foliar spray plus root drench ca. 40 ppm a.i./dry soil; protectant
[2] = system: Tomato; assay: whole plant screen for plant growth regulating activity, tomato; parameters: key to greening effect, TO* / greening effect, TO^+ / apical damage, TO* / tillering or side shooting, TO* / apical damage, TO^+ / tillering or side shooting, TO^+: Greening effect; Apical damage; Tillering or side shooting; details: after 2-6 weeks
Experimental: (§1) These compounds were tested on a whole plant screen for plant growth regulating activity against six species of plant. The plant species used in this screen are presented in Table VIII with the leaf stage at which they were sprayed.
(§2) A formulation of each chemical was applied at 4000 ppm (4 kg/ha in a 1000 1/ha field volume) using a tracksprayer and a SS8004E (Teejet) nozzle. Additional tests were done on tomatoes at 2000 and 500 ppm.
(§3) After spraying, the plants were grown in a glasshouse with 25° C. day/22° C. night temperatures. The exception to this were the temperate cereals, wheat and barley which were grown in 13°-16° C. day/11°-13° C. night temperatures. Supplementary lighting was supplied when necessary to provide an average photoperiod of 16 hours (14 hours minimum).
(§4) After 2-6 weeks in the glasshouse, depending on species and time of year, the plants were visually assessed for morphological characteristics against a control plant sprayed with a blank formulation.
To- TO Ailsa 2-21/2 leaves

[3] = system: Plasmopara viticola; assay: foliar fungal disease test on plants, Plasmopara viticola (vine); details: 100 ppm foliar spray plus root drench ca. 40 ppm a.i./dry soil; protectant
[4] = system: Puccinia recondita; assay: foliar fungal disease test on plants, Puccinia recondita (wheat); details: 100 ppm foliar spray plus root drench ca. 40 ppm a.i./dry soil; protectant
[5] = system: Pyricularia oryzae; details: 100 ppm foliar spray plus root drench ca. 40 ppm a.i./dry soil; protectant
[6] = system: Maize; assay: whole plant screen for plant growth regulating activity, maize; parameters: key: Greening effect; Apical damage; Tillering or side shooting; details: 4000 ppm (4 kg/ha), after 2-6 weeks
Experimental: as §1, §2, §3, §4

[7] = system: Erysiphe graminis; assay: foliar fungal disease test on plants, Erysiphe graminis (barley); details: 100 ppm foliar spray plus root drench ca. 40 ppm a.i./dry soil; inoculated 24 hours before treatment
[8] = system: Venturia inaequalis; assay: foliar fungal disease test on plants, Venturia inaequalis (apple); details: 100 ppm foliar spray plus root drench ca. 40 ppm a.i./dry soil; protectant
[9] = system: Nilaparvata lugens; assay: insecticidal test NL, brown plant hopper nymphs, contact; details: 500 ppm, rice plant, duration 3
Experimental: (§5) The activity of the compound was determined using a variety of insect, mite and nematode pests. The compound was used in the form of liquid preparations containing from 100 to 500 parts per million (ppm) by weight of the compound. The preparations were made by dissolving the compound in acetone and diluting the solutions with water containing 0.1% by weight of a wetting agent sold under the trade name "SYNPERONIC" NX until the liquid preparations contained the required concentration of the product. "SYNPERONIC" is a Registered Trade Mark.
(§6) The test procedure adopted with regard to each pest was basically the same and comprised supporting a number of the pests on a medium which was usually a host plant or a foodstuff on which the pests feed, and treating either or both the pests and the medium with the preparations. The mortality of the pests was then assessed at periods usually varying from one to seven days after the treatment. […]

[10] = system: Tetranychus urticae (spider mites - ova); assay: insecticidal test TUe, spider mites ova, contact; details: 500 ppm, French bean leaf, duration 6
Experimental: as §5, §6

[11] = system: Blattella germanica; assay: insecticidal test BG, cockroach nymphs, residual; details: 500 ppm, plastic pot, duration 3
Experimental: as §5, §6

[12] = system: Diabrotica balteata; assay: insecticidal test DB, rootworm larvae, residual; details: 500 ppm, filter paper/maize seed, duration 3
Experimental: as §5, §6

[13] = system: Myzus persicae; assay: insecticidal test MP, aphids, contact; details: 500 ppm, Chinese cabbage leaf, duration 3
Experimental: as §5, §6

[14] = system: Musca domestica; assay: insecticidal test MD, houseflies adults, contact; details: 500 ppm, cotton wool/sugar, duration 1
Experimental: as §5, §6

[15] = system: Meloidogyne incognita; assay: nematode test MI, tomato root knot eelworm larvae, semi in-vitro, residual; details: 125 ppm, duration 7
Experimental: as §5, §6

[16] = system: Tetranychus urticae (spider mites - adult); assay: insecticidal test TUa, spider mites adult, contact; details: 500 ppm, French bean leaf, duration 3
Experimental: as §5, §6

[17] = system: Musca domestica; assay: whole plant or invertebrate
Experimental: A sample of compound 9 was diluted in 2 mls acetone and made up to a 2000 ppm solution with 0.1% aqueous synperonic solution. The solution (1 ml) was then sprayed directly onto twenty mixed sex houseflies held in a drinking cup. Immediately after spraying the cups were inverted and left to dry. An assessment of knockdown was made when the cups were righted 15 minutes later. The flies were then provided with a 10% sucrose solution on a cotton wool pad, and held for 48 hours in a holding room conditioned at 25° C. and 65% relative humidity before a mortality assessment was made.

[18] = system: Spodoptera exigua; assay: insecticidal test SP, lesser army worm larvae, residual; details: 500 ppm, cotton leaf, duration 3
Experimental: as §5, §6

[19] = system: Heliothis virescens; assay: insecticidal test HV, tobacco budworm larvae, residual; details: 500 ppm, cotton leaf, duration 3
Experimental: as §5, §6

[20] = system: Rice; assay: whole plant screen for plant growth regulating activity, rice; details: 4000 ppm (4 kg/ha), after 2-6 weeks
Experimental: as §1, §2, §3, §4
Rice RC Ishikari 2-21/2 leaves

[21] = system: Wheat; assay: whole plant screen for plant growth regulating activity, wheat; details: 4000 ppm (4 kg/ha), after 2-6 weeks
Experimental: as §1, §2, §3, §4
Wheat WW Timmo 1-1.5 leaves

SMILES	disease control grade, CERCOSPORA ARACHIDICOLA (Peanut) [1]	greening effect, TO^+ ([2]; 500 ppm)	retardation, TO* ([2]; 2000 ppm)	disease control grade, PLASMOPARA VITICOLA (Vine) [3]	disease control grade, PUCCINIA RECONDITA (Wheat) [4]	disease control grade, P[…] (Rice) [5]	disease control grade, ERYSIPHE GRAMINIS (Barley) [7]	disease control grade, VENTURIA INAEQUALIS (Apple) [8]	retardation, TO^+ ([2]; 500 ppm)	also measured
COC(=O)/C(=C/SC)c1ccccc1CCc1ccc(F)cc1 [96 of Table I]	0 (60-100% of disease on untreated plants)	G	1 (10-30%)	0 (60-100% of disease on untreated plants)	0 (60-100% of disease on untreated plants)	0 (60-100% of disease on untreated plants)	0 (60-100% of disease on untreated plants)	3 (trace - 5% of disease on untreated plants)	–	apical damage, MZ [6]: A; greening effect, MZ [6]: G
COC(=O)/C(=C/SC)c1ccccc1/C=C/c1ccccc1 [9 of Table I]	1 (26-59% of disease on untreated plants)	G	–	0 (60-100% of disease on untreated plants)	3 (trace - 5% of disease on untreated plants)	4	0 (60-100% of disease on untreated plants)	4	–	apical damage, TO^+ ([2]; 500 ppm): A; tillering or side shooting, TO^+ ([2]; 500 ppm): T; apical damage, TO* ([2]; 2000 ppm): A; greening effect, TO* ([2]; 2000 ppm): G; tillering or side shooting, TO* ([2]; 2000 ppm): T
COC(=O)/C(=C/SC)c1ccccc1/C=C/c1ccccc1 [Compound 9 of Table I]	–	–	–	–	–	–	–	–	–	grading of mortality, NL [9]: 0 (less than 50% mortality); grading of mortality, TUE [10]: 0 (less than 50% mortality); grading of mortality, BG [11]: 0 (less than 50% mortality); grading of mortality, DB [12]: 5 (50-79% mortality); grading of mortality, MP [13]: 0 (less than 50% mortality); grading of mortality, MD [14]: 5 (50-79% mortality); grading of root knot reduction, MI* [15]: 9 (70-100% root knot reduction as compared to an untreated plant for Meloidogyne incognita); grading of mortality, TUA [16]: 0 (less than 50% mortality); knockdown ([17]; 1 ml of 2000 ppm solution sprayed on twenty houseflies, assessed 15 minutes later): 88%; mortality at 2000 ppm ([17]; Musca domestica, topical, 48 h, read-out: kill): 15%; grading of mortality, SP [18]: 0 (less than 50% mortality); grading of mortality, HV [19]: 0 (less than 50% mortality)
COC(=O)/C(=C/SC)c1ccccc1 [1 of Table I]	0 (60-100% of disease on untreated plants)	–	1 (10-30%)	0 (60-100% of disease on untreated plants)	0 (60-100% of disease on untreated plants)	1 (26-59% of disease on untreated plants)	0 (60-100% of disease on untreated plants)	0 (60-100% of disease on untreated plants)	1 (10-30%)	retardation, RC [20]: 2 (21-60%)
COC(=O)/C(=C/SC)c1ccccc1Oc1ccccc1 [1 of Table II]	0 (60-100% of disease on untreated plants)	G	1 (10-30%)	4	4	2 (6-25% of disease on untreated plants)	3 (trace - 5% of disease on untreated plants)	4	1 (10-30%)	retardation, WW [21]: 1 (10-30%)
COC(=O)/C(=C\SC)c1ccccc1 [2 of Table I]	0 (60-100% of disease on untreated plants)	G	1 (10-30%)	1 (26-59% of disease on untreated plants)	0 (60-100% of disease on untreated plants)	0 (60-100% of disease on untreated plants)	0 (60-100% of disease on untreated plants)	0 (60-100% of disease on untreated plants)	2 (21-60%)	greening effect, TO* ([2]; 2000 ppm): G; retardation, RC [20]: 1 (10-30%)
COC(=O)/C(=C\SC)c1ccccc1/C=C/c1ccccc1 [10 of Table I]	4	–	–	4	2 (6-25% of disease on untreated plants)	3 (trace - 5% of disease on untreated plants)	0 (60-100% of disease on untreated plants)	4	–	–
